The record followed here is ChEMBL document CHEMBL5215009, “Discovery of Pan-peroxisome Proliferator-Activated Receptor Modulators from an Endolichenic Fungus, Daldinia childiae” (J Nat Prod, 2022).

pEC50, pKi: −log10 of the molar value. The source made the active and inactive calls. The rule behind the calls is not given here.

Test [1] deals with Mesenchymal stem cells. Kind of test: Induction of adipogenesis in differentiated human BMMSC cells assessed as increase in adiponectin level at 30 uM in presence of IDX by ELISA. Type of test: functional, cell-based.
Test [2] deals with Mesenchymal stem cells. Put plainly: Induction of adipogenesis in differentiated human BMMSC cells assessed as fold increase in adiponectin level at 5 uM in presence of IDX by ELISA relative to control. It counts as functional.
In test [3] the test system is Mesenchymal stem cells. Put plainly: Induction of adipogenesis in differentiated human BMMSC cells assessed as increase in number and size of lipid droplets at 30 uM in presence of IDX by Oil red O staining based inverted microscope analysis. Type of test: functional, cell-based.
For test [4], the target named is T1, Peroxisome proliferator-activated receptor delta (Homo sapiens) (UniProt Q03181).
T1 sequence (whole entry): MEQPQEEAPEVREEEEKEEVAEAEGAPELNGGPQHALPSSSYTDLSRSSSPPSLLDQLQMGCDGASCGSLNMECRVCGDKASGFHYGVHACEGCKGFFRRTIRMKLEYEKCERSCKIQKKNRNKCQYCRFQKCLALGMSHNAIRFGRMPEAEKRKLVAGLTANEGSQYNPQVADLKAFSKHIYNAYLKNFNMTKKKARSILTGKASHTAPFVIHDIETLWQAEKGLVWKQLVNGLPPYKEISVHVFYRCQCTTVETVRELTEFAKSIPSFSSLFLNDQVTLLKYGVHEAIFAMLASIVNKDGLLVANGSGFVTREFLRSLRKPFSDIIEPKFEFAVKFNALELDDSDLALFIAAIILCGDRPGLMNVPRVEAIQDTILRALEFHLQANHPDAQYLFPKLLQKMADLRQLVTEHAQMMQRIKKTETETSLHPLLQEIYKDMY
Kind of test: Displacement of fluormone pan-PPARgreen from PPARdelta (unknown origin) at 30 uM by TR-FRET based competitive binding assay relative to control. To be noted: filed as partial agonist.

Test [5] concerns Mesenchymal stem cells. Put plainly: Induction of adipogenesis in differentiated human BMMSC cells assessed as fold increase in adiponectin level in presence of IDX by ELISA. It counts as functional, cell-based.
Test [6] concerns the target T2, Peroxisome proliferator-activated receptor delta (Homo sapiens, UniProt Q03181).
T2 sequence (Q03181 whole entry): T1 sequence (whole entry)
Put plainly: Partial agonist activity at PPARdelta (unknown origin) assessed as increase in fluorescein labeled PRIP/RAP250 coactivator peptide requirement by Lanthascreen TR-FRET assay.

Test [7] concerns the target T3, Peroxisome proliferator-activated receptor alpha (Homo sapiens, UniProt Q07869).
T3 sequence (Q07869 whole entry): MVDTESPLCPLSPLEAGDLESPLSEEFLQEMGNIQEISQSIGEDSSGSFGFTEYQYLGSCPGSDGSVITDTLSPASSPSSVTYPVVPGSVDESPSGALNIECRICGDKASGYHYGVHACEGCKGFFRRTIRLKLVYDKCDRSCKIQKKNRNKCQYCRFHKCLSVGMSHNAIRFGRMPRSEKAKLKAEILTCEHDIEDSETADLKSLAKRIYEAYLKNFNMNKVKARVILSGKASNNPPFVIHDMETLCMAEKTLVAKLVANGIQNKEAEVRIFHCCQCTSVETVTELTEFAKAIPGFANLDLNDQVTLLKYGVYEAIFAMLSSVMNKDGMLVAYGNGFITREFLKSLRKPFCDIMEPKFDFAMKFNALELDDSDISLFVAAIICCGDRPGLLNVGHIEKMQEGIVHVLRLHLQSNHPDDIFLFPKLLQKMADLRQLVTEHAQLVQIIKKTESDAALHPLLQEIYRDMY
Put plainly: Partial agonist activity at PPARalpha (unknown origin) assessed as increase in PRIP/RAP250 coactivator peptide requirement by Lanthascreen TR-FRET assay.

The target of test [8] is T4, Peroxisome proliferator-activated receptor gamma (Homo sapiens) (UniProt P37231).
T4 sequence (whole entry): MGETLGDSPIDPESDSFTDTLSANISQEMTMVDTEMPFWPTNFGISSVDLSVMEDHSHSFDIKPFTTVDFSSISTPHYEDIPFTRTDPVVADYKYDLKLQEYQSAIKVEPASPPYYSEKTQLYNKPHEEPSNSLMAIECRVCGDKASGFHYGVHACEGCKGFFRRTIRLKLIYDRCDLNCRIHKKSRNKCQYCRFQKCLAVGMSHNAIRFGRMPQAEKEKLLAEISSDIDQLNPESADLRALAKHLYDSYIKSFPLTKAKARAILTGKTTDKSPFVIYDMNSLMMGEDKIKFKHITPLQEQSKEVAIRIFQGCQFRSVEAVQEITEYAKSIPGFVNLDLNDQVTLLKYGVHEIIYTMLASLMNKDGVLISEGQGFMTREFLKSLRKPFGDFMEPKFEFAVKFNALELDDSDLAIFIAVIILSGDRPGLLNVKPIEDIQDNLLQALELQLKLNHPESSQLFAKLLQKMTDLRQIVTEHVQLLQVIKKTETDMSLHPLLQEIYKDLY
Kind of test: Partial agonist activity at PPARgamma (unknown origin) assessed as increase in fluorescein labeled SRC-2 coactivator peptide requirement by Lanthascreen TR-FRET assay. To be noted: filed as partial agonist.

In test [9] the target is T4, Peroxisome proliferator-activated receptor gamma (Homo sapiens). Put plainly: Partial agonist activity at PPARgamma in human BMMSC cells assessed as inhibition of pioglitazone-induced adiponectin synthesis measured after 5 days by ELISA. It counts as cell-based. To be noted: filed as partial agonist, dose 10-30 µM, time 5.0 day, DDE = dose-dependent effect.
For test [10], the target named is T3, Peroxisome proliferator-activated receptor alpha. Kind of test: Binding affinity to PPARalpha (unknown origin) assessed as inhibition constant by Cheng-Prusoff equation analysis.
Test [11] has as its target T5, Peroxisome proliferator-activated receptor gamma (Homo sapiens, UniProt P37231).
T5 sequence (P37231 whole entry): T4 sequence (whole entry)
Put plainly: Binding affinity to PPARgamma (unknown origin) assessed as inhibition constant by Cheng-Prusoff equation analysis.

Test [12] concerns the target T6, Retinoic acid receptor RXR-alpha (Homo sapiens, UniProt P19793).
T6 sequence (P19793 whole entry): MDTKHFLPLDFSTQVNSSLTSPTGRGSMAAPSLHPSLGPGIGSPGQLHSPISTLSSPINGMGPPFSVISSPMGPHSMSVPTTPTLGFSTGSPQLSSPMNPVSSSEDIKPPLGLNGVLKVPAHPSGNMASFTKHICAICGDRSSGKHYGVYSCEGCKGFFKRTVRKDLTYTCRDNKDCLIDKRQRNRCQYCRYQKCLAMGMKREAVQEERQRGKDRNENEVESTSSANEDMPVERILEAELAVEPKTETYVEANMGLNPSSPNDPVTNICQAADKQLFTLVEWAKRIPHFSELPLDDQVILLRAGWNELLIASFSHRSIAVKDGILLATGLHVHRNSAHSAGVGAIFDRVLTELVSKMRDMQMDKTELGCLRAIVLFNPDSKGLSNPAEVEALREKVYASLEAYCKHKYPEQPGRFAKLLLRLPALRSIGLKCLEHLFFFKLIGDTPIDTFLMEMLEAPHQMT
Kind of test: Agonist activity at RXRalpha-LBD (unknown origin) assessed as transactivation by measuring increase in fluorescein-labelled coactivator PGC-1alpha peptide recruitment by Lanthascreen TR-FRET.

The target in test [13] is T2, Peroxisome proliferator-activated receptor delta. Put plainly: Binding affinity to PPARdelta (unknown origin) assessed as inhibition constant by Cheng-Prusoff equation analysis.
Test [14] concerns the target T7, Peroxisome proliferator-activated receptor alpha (Homo sapiens) (UniProt Q07869).
T7 sequence (whole entry): T3 sequence (Q07869 whole entry)
Kind of test: Displacement of fluormone pan-PPARgreen from PPARalpha (unknown origin) at 30 uM by TR-FRET based competitive binding assay relative to control.

Test [15] concerns the target T4, Peroxisome proliferator-activated receptor gamma (Homo sapiens). Kind of test: Displacement of fluormone pan-PPARgreen from PPARgamma (unknown origin) at 30 uM by TR-FRET based competitive binding assay relative to control. To be noted: filed as partial agonist.
The test system of test [16] is Mesenchymal stem cells. Put plainly: Induction of adipogenesis in differentiated human BMMSC cells assessed as fold increase in adiponectin level at 30 uM in presence of IDX by ELISA relative to control. Type of test: functional.
Test [17] concerns the target T4, Peroxisome proliferator-activated receptor gamma (Homo sapiens). Put plainly: Partial agonist activity at PPARgamma (unknown origin) assessed as increase in fluorescein labeled SRC-1 coactivator peptide requirement by Lanthascreen TR-FRET assay. Conditions: filed as partial agonist.
Test [18] deals with T5, Peroxisome proliferator-activated receptor gamma. Put plainly: Partial agonist activity at PPARgamma (unknown origin) assessed as increase in fluorescein labeled PRIP/RAP250 coactivator peptide requirement by Lanthascreen TR-FRET assay.
Test [19] concerns the target T8, Retinoic acid receptor RXR-alpha (Homo sapiens) (UniProt P19793).
T8 sequence (whole entry): T6 sequence (P19793 whole entry)
Put plainly: Agonist activity at RXRalpha-LBD (unknown origin) assessed as transactivation by measuring increase in fluorescein-labelled coactivator PGC-1alpha peptide recruitment at 60 uM by Lanthascreen TR-FRET assay relative to control. Conditions: filed as agonist.

As for `COc1cccc2c(-c3ccc(O)c4c(OC)cccc34)ccc(O)c12`, in the test on Mesenchymal stem cells [1], the result was Active.
Take `COc1cccc2ccc(-c3cc(-c4ccc(O)c5c(OC)cccc45)c4cccc(OC)c4c3O)c(O)c12`: the result in the test with Mesenchymal stem cells [1] was Active.
With `COc1ccc(Cl)cc1C(=O)NCCc1ccc(S(=O)(=O)NC(=O)NC2CCCCC2)cc1` [GLYBURIDE], the “fold change (FC)” value in the test with Mesenchymal stem cells [2] amounted to 4.93.
Regarding `CC(=O)c1c(O)cccc1O`, the outcome in the test with Mesenchymal stem cells [1] was Active.
The same measure, in the same setting: the value for `O=C1CCC(O)c2cccc(O)c21` (stereo not given) was “Active”; that for `COc1cccc2ccc(-c3cc(-c4ccc(O)c5c(OC)cccc45)c(O)c4c(OC)cccc34)c(O)c12` was “Active”; that for `COc1cccc2c(-c3cc(-c4ccc(O)c5c(OC)cccc45)c4cccc(OC)c4c3O)ccc(O)c12` was “Active”.
In the case of `COc1cccc2ccc(-c3ccc4cccc(OC)c4c3O)c(O)c12`, the outcome with Mesenchymal stem cells [1] was Active.
As for `Cc1cc(=O)c2c(O)cccc2o1`, the result in the test with Mesenchymal stem cells [1] was Active.
Take `COc1cccc2ccc(-c3cc(-c4ccc5cccc(OC)c5c4O)c4cccc(OC)c4c3O)c(O)c12`: the outcome (in the test on Mesenchymal stem cells [3]; in test [8]; in test [17]) was Active. Moreover, the Activity in test [4] turned out to be 51.8%; in [14] (filed as partial agonist), 56.5%; in test [15], 52%; in test [19], 53.2%. The pEC50 in the test on Mesenchymal stem cells [5] was 4.51; in [6], 4.27; in test [7] it was 4.24; in test [12], 4.28; in test [18], 4.29. Besides, the inhibition result in test [9] is “Dde”. For the same compound, the pKi in [10] was 5.03; in test [11] it was 4.72; in test [13], 4.73. Besides, in the test with Mesenchymal stem cells [16], the “fold change (FC)” value is reported as 4.1.
For `COc1cccc2ccc(-c3ccc(O)c4c(OC)cccc34)c(O)c12`, the result with Mesenchymal stem cells [3] was Active. Also, the Activity was determined as 42.1% in test [4], 37.6% in [14] and 61.2% in test [15]. In addition, in the test with Mesenchymal stem cells [5], the pEC50 was 4.82. The inhibition entry in test [9] is “Dde”. Also, the pKi in test [11] is 5.18. Further, in the test with Mesenchymal stem cells [16], the “fold change (FC)” value was 6.
Take `CCc1ccc(CCOc2ccc(CC3SC(=O)NC3=O)cc2)nc1` (stereo not given) [PIOGLITAZONE]: the negative logarithm of the EC50 (pEC50) in the test on Mesenchymal stem cells [5] is 6.10.
